In assay [1] the test system is Candida albicans. Put plainly: Antifungal activity against Candida albicans MTCC 227 assessed as zone of inhibition at 100 ug/ml after 30 hrs by cup plate method. The settings on record: MTCC 227, 30 h, read-out: IZ. The format is functional.
Assay [2] concerns Candida albicans. The assay is described as follows: Antifungal activity against Candida albicans MTCC 227 after 30 hrs by serial dilution method. The format is functional. The conditions noted are these: MTCC 227, 30 h.
The subject of assay [3] is Aspergillus flavus. Put plainly: Antifungal activity against Aspergillus flavus MTCC 277 assessed as zone of inhibition at 100 ug/ml after 30 hrs by cup plate method. The format is functional. The conditions noted are these: MTCC 277, 30 h, read-out: IZ.
The test system of assay [4] is Aspergillus flavus. Put plainly: Antifungal activity against Aspergillus flavus MTCC 277 after 30 hrs by serial dilution method. The format is functional. The conditions noted are these: MTCC 277, 30 h.
Assay [5] relates to Aspergillus fumigatus. Put plainly: Antifungal activity against Aspergillus fumigatus MTCC 343 assessed as zone of inhibition at 100 ug/ml after 30 hrs by cup plate method. The assay is classed as functional. The conditions noted are these: MTCC 343, 30 h, read-out: IZ.
The test system of assay [6] is Aspergillus fumigatus. The assay is described as follows: Antifungal activity against Aspergillus fumigatus MTCC 343 after 30 hrs by serial dilution method. The conditions noted are these: MTCC 343, 30 h. The format is functional.
Assay [7] has as its system Aspergillus niger. The assay is described as follows: Antifungal activity against Aspergillus niger MTCC 282 assessed as zone of inhibition at 100 ug/ml after 30 hrs by cup plate method. The format is functional. The settings on record: MTCC 282, 30 h, read-out: IZ.
Assay [8] has as its system Aspergillus niger. Put plainly: Antifungal activity against Aspergillus niger MTCC 282 after 30 hrs by serial dilution method. The conditions noted are these: MTCC 282, 30 h. The format is functional.
The test system of assay [9] is Klebsiella pneumoniae. The assay is described as follows: Antibacterial activity against Klebsiella pneumoniae MTCC 432 assessed as zone of inhibition at 100 ug/ml after 14 hrs by cup plate method. The conditions noted are these: MTCC 432, 14 h, read-out: IZ. The format is functional.
The test system of assay [10] is Klebsiella pneumoniae. Put plainly: Antibacterial activity against Klebsiella pneumoniae MTCC 432 after 14 hrs by serial dilution method. The format is functional. The settings on record: MTCC 432, 14 h.
Assay [11] concerns Salmonella typhi. The assay is described as follows: Antibacterial activity against Salmonella typhi MTCC 733 assessed as zone of inhibition at 100 ug/ml after 14 hrs by cup plate method. The assay is classed as functional, Salmonella enterica subsp. enterica serovar Typhi. The settings on record: Salmonella enterica, MTCC 733, 14 h; read-out: IZ.
For assay [12], the system named is Salmonella typhi. The assay is described as follows: Antibacterial activity against Salmonella typhi MTCC 733 after 14 hrs by serial dilution method. The format is functional, Salmonella enterica subsp. enterica serovar Typhi. The conditions noted are these: Salmonella enterica, MTCC 733, 14 h.
Assay [13] concerns Escherichia coli. The assay is described as follows: Antibacterial activity against Escherichia coli MTCC 443 assessed as zone of inhibition at 100 ug/ml after 14 hrs by cup plate method. The format is functional. The settings on record: MTCC 443, 14 h, read-out: IZ.
In assay [14] the test system is Bacillus subtilis. Put plainly: Antibacterial activity against Bacillus subtilis MTCC 441 after 14 hrs by serial dilution method. The format is functional. The settings on record: MTCC 441, 14 h.
Assay [15] deals with Staphylococcus aureus. Put plainly: Antibacterial activity against Staphylococcus aureus MTCC 096 assessed as zone of inhibition at 100 ug/ml after 14 hrs by cup plate method. The format is functional. The settings on record: MTCC 096, 14 h, read-out: IZ.
For assay [16], the system named is Staphylococcus aureus. The assay is described as follows: Antibacterial activity against Staphylococcus aureus MTCC 096 after 14 hrs by serial dilution method. The format is functional. The settings on record: MTCC 096, 14 h.
For assay [17], the system named is Escherichia coli. The assay is described as follows: Antibacterial activity against Escherichia coli MTCC 443 after 14 hrs by serial dilution method. The assay is classed as functional. The settings on record: MTCC 443, 14 h.
The subject of assay [18] is Bacillus subtilis. The assay is described as follows: Antibacterial activity against Bacillus subtilis MTCC 441 assessed as zone of inhibition at 100 ug/ml after 14 hrs by cup plate method. The format is functional. The conditions noted are these: MTCC 441, 14 h, read-out: IZ.

Molecules are shown by their SMILES. Converted amounts (≈) assume the structure as drawn. Bounds are passed on as bounds.

`O=c1cc(C(F)(F)F)n(CCCCN2CCCC2)c2ccc(F)cc12`: the zone of inhibition at 100 µg/mL with Candida albicans [1] was 16 mm; in the assay on Aspergillus flavus [3], 12 mm; in the assay on Aspergillus fumigatus [5], 12 mm; in the assay on Aspergillus niger [7] it was 12 mm; with Klebsiella pneumoniae [9], 13 mm; in the assay on Salmonella typhi [11] it was 12 mm. Moreover, the results for the zone of inhibition at 100 µg/mL in the assay with Escherichia coli [13], with Staphylococcus aureus [15] and in the assay with Bacillus subtilis [18] were < 10 mm, 14 mm and 15 mm, respectively. Besides, the MIC with Candida albicans [2] came to 6.25 µg/mL (≈ 17.5 µM); against Aspergillus flavus [4], 12.5 µg/mL (≈ 35.1 µM); in the assay with Aspergillus fumigatus [6], 12.5 µg/mL (≈ 35.1 µM); against Aspergillus niger [8] it was 12.5 µg/mL (≈ 35.1 µM); against Klebsiella pneumoniae [10], 12.5 µg/mL (≈ 35.1 µM); against Salmonella typhi [12] it was 12.5 µg/mL (≈ 35.1 µM). Moreover, the MIC against Bacillus subtilis [14] came to 6.25 µg/mL (≈ 17.5 µM); against Staphylococcus aureus [16], 6.25 µg/mL (≈ 17.5 µM); against Escherichia coli [17], 50 µg/mL (≈ 140 µM).
Consider `COc1ccc2c(c1)c(=O)cc(C(F)(F)F)n2CCCCN1C(=O)c2ccccc2C1=O`, for which the zone of inhibition at 100 µg/mL in the assay on Candida albicans [1] was 15 mm; in the assay on Aspergillus flavus [3] it was < 10 mm; in the assay on Aspergillus fumigatus [5] it was < 10 mm; with Aspergillus niger [7] it was 12 mm; in the assay with Klebsiella pneumoniae [9] it was 16 mm; in the assay with Salmonella typhi [11] it was < 10 mm. Further, the zone of inhibition at 100 µg/mL in the assay with Escherichia coli [13] was < 10 mm; in the assay on Staphylococcus aureus [15] it was 16 mm; in the assay on Bacillus subtilis [18] it was 13 mm. Further, the MIC against Candida albicans [2] turned out to be 6.25 µg/mL (≈ 14.1 µM); against Aspergillus flavus [4], 25 µg/mL (≈ 56.3 µM); against Aspergillus fumigatus [6] it was 25 µg/mL (≈ 56.3 µM); against Aspergillus niger [8], 12.5 µg/mL (≈ 28.1 µM); against Klebsiella pneumoniae [10] it was 6.25 µg/mL (≈ 14.1 µM); with Salmonella typhi [12], 25 µg/mL (≈ 56.3 µM). Besides, the MIC against Bacillus subtilis [14] was 12.5 µg/mL (≈ 28.1 µM); in the assay on Staphylococcus aureus [16] it was 6.25 µg/mL (≈ 14.1 µM); in the assay with Escherichia coli [17], 50 µg/mL (≈ 113 µM).
As to `O=c1cc(C(F)(F)F)n(C/C=C/CN2CCCC2)c2ccc(F)cc12`, the zone of inhibition at 100 µg/mL with Candida albicans [1] is 15 mm; in the assay on Aspergillus flavus [3], 12 mm; in the assay on Aspergillus fumigatus [5], 12 mm; with Aspergillus niger [7] it was 12 mm; in the assay with Klebsiella pneumoniae [9] it was 12 mm; with Salmonella typhi [11], < 10 mm. The zone of inhibition at 100 µg/mL in the assay with Escherichia coli [13] was < 10 mm; with Staphylococcus aureus [15] it was 15 mm; with Bacillus subtilis [18], 12 mm. In addition, the MIC came out at 6.25 µg/mL (≈ 17.6 µM) in the assay with Candida albicans [2]; 12.5 µg/mL (≈ 35.3 µM) in the assay with Aspergillus flavus [4]; 12.5 µg/mL (≈ 35.3 µM) in the assay on Aspergillus fumigatus [6]; 12.5 µg/mL (≈ 35.3 µM) against Aspergillus niger [8]; 12.5 µg/mL (≈ 35.3 µM) against Klebsiella pneumoniae [10]; 25 µg/mL (≈ 70.6 µM) in the assay on Salmonella typhi [12]. The figures for the MIC with Bacillus subtilis [14], against Staphylococcus aureus [16] and in the assay with Escherichia coli [17] were 12.5 µg/mL (≈ 35.3 µM), 6.25 µg/mL (≈ 17.6 µM) and 50 µg/mL (≈ 141 µM), respectively.
In the case of `O=C1c2ccccc2C(=O)N1CCCCn1c(C(F)(F)F)cc(=O)c2ccccc21`, the zone of inhibition at 100 µg/mL in the assay on Candida albicans [1] was 17 mm; in the assay with Aspergillus flavus [3] it was < 10 mm; in the assay on Aspergillus fumigatus [5], < 10 mm; with Aspergillus niger [7], 13 mm; in the assay with Klebsiella pneumoniae [9], 13 mm; in the assay on Salmonella typhi [11] it was < 10 mm. In addition, the figures for the zone of inhibition at 100 µg/mL in the assay with Escherichia coli [13], in the assay on Staphylococcus aureus [15] and in the assay on Bacillus subtilis [18] were < 10 mm, 13 mm and 12 mm, respectively. In addition, the MIC against Candida albicans [2] turned out to be 6.25 µg/mL (≈ 15.1 µM); in the assay with Aspergillus flavus [4] it was 25 µg/mL (≈ 60.3 µM); against Aspergillus fumigatus [6] it was 25 µg/mL (≈ 60.3 µM); in the assay on Aspergillus niger [8], 12.5 µg/mL (≈ 30.2 µM); in the assay on Klebsiella pneumoniae [10], 12.5 µg/mL (≈ 30.2 µM); in the assay with Salmonella typhi [12], 25 µg/mL (≈ 60.3 µM). Also, the values for the MIC in the assay on Bacillus subtilis [14], in the assay with Staphylococcus aureus [16] and in the assay on Escherichia coli [17] were 12.5 µg/mL (≈ 30.2 µM), 12.5 µg/mL (≈ 30.2 µM) and 50 µg/mL (≈ 121 µM), respectively.
As for `Cc1ccc2nc(C(F)(F)F)cc(OCCCCN3C(=O)c4ccccc4C3=O)c2c1`, the zone of inhibition at 100 µg/mL is 15 mm in the assay with Candida albicans [1]; < 10 mm in the assay with Aspergillus flavus [3]; 12 mm in the assay on Aspergillus fumigatus [5]; 17 mm in the assay on Aspergillus niger [7]; 15 mm with Klebsiella pneumoniae [9]; 12 mm with Salmonella typhi [11]. Besides, the zone of inhibition at 100 µg/mL in the assay on Escherichia coli [13] was < 10 mm; with Staphylococcus aureus [15], 15 mm; in the assay with Bacillus subtilis [18], 15 mm. The MIC against Candida albicans [2] came to 6.25 µg/mL (≈ 14.6 µM); with Aspergillus flavus [4], 50 µg/mL (≈ 117 µM); in the assay on Aspergillus fumigatus [6], 12.5 µg/mL (≈ 29.2 µM); against Aspergillus niger [8], 6.25 µg/mL (≈ 14.6 µM); in the assay on Klebsiella pneumoniae [10], 6.25 µg/mL (≈ 14.6 µM); against Salmonella typhi [12], 12.5 µg/mL (≈ 29.2 µM). In addition, the MIC in the assay with Bacillus subtilis [14] was found to be 6.25 µg/mL (≈ 14.6 µM); in the assay with Staphylococcus aureus [16], 6.25 µg/mL (≈ 14.6 µM); in the assay with Escherichia coli [17] it was 50 µg/mL (≈ 117 µM).
Turning to `O=c1cc(C(F)(F)F)n(CCCCN2CCOCC2)c2ccc(F)cc12`, the zone of inhibition at 100 µg/mL with Candida albicans [1] is 15 mm; in the assay with Aspergillus flavus [3] it was < 10 mm; with Aspergillus fumigatus [5] it was < 10 mm; in the assay on Aspergillus niger [7], 13 mm; with Klebsiella pneumoniae [9] it was < 10 mm; with Salmonella typhi [11], < 10 mm. For the same molecule, the zone of inhibition at 100 µg/mL is < 10 mm in the assay with Escherichia coli [13], 15 mm with Staphylococcus aureus [15] and 13 mm with Bacillus subtilis [18]. The MIC against Candida albicans [2] came to 6.25 µg/mL (≈ 16.8 µM); in the assay with Aspergillus flavus [4], 25 µg/mL (≈ 67.1 µM); in the assay on Aspergillus fumigatus [6], 25 µg/mL (≈ 67.1 µM); in the assay with Aspergillus niger [8], 12.5 µg/mL (≈ 33.6 µM); in the assay on Klebsiella pneumoniae [10], 25 µg/mL (≈ 67.1 µM); in the assay with Salmonella typhi [12] it was 25 µg/mL (≈ 67.1 µM). For the same molecule, the values for the MIC with Bacillus subtilis [14], against Staphylococcus aureus [16] and with Escherichia coli [17] were 12.5 µg/mL (≈ 33.6 µM), 6.25 µg/mL (≈ 16.8 µM) and 50 µg/mL (≈ 134 µM), respectively.
